Where “and” joins values, the source holds several entries; their conditions need not be identical. Equal entries are not always repeated.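 Following 48 hours of exposure in 96-well plates, responses at five concentrations were used to interpolate endpoints linearly. GI50: concentration for 50% inhibition of growth. TGI marks complete inhibition of growth.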
Columns and labels:
Assay in all cases: DTP human tumour cell line panel, 48 h
SW-620 colon = test system: SW-620 colon
NCI/ADR-RES ovarian = test system: NCI/ADR-RES ovarian
MOLT-4 leukemia = test system: MOLT-4 leukemia
A549 NSCLC = test system: A549 NSCLC
NCI-H226 lung = test system: NCI-H226 lung
UACC-257 melanoma = test system: UACC-257 melanoma
BT-549 breast = test system: BT-549 breast
HT29 colon = test system: HT29 colon
NCI-H460 lung = test system: NCI-H460 lung
SK-OV-3 ovarian = test system: SK-OV-3 ovarian

| Structure (SMILES) | TGI (SW-620 colon) [µM] | TGI (NCI/ADR-RES ovarian) | TGI (MOLT-4 leukemia) | TGI (A549 NSCLC) | TGI (NCI-H226 lung) [µM] | TGI (UACC-257 melanoma) | TGI (BT-549 breast) [µM] | TGI (HT29 colon) | TGI (NCI-H460 lung) [µM] | TGI (SK-OV-3 ovarian) | GI50 (NCI/ADR-RES ovarian) [µM] | GI50 (MOLT-4 leukemia) [µM] | GI50 (A549 NSCLC) [µM] | GI50 (SK-OV-3 ovarian) [µM] | GI50 (UACC-257 melanoma) [µM] | GI50 (HT29 colon) [µM] |
| --- | --- | --- | --- | --- | --- | --- | --- | --- | --- | --- | --- | --- | --- | --- | --- | --- |
| O=C1OC(C(O)CO)C(C(O)CO)OC1=O (configuration not stated) | > 10 | > 10 µM | > 10 µM | > 10 µM | > 10 | > 10 µM | > 10 | > 10 µM | > 10 |  |  |  |  |  |  |  |
| CN(C)CCNC(=O)c1cccc2c1C(=O)c1ccccc1C2=O | > 91.3 | 75.5 µM | > 71.7 µM | > 100 µM | > 100 | 54.4 µM |  | > 86.6 µM | 85.8 | > 100 µM |  |  |  |  |  |  |
| COc1ccc2c(c1)/C(=C\c1c(Cl)nc3n1CCS3)C(=O)N2 | > 100 | 88.3 µM | > 100 µM | > 100 µM |  | 25.8 µM | 44 | 16.3 µM | 18.9 | 66.9 µM |  |  |  |  |  |  |
| NCCCn1c(Cl)nc2ccccc21 | > 100 | > 100 µM | > 100 µM | > 100 µM | > 100 |  | > 100 | > 100 µM | > 100 | > 100 µM |  |  |  |  |  |  |
| CCC1c2[nH]c3ccccc3c2C[C@H]2C(=O)NC(C)C(=O)N12 (some centres not stated) | > 100 | > 100 µM | > 100 µM | > 100 µM | > 100 | > 100 µM | > 100 | > 100 µM |  | > 100 µM |  |  |  |  |  |  |
| CS(=O)(=O)OCCN(CCOS(C)(=O)=O)c1ccc(C=Nc2ccc(-c3csc(Cc4ccccc4)n3)cc2)c(Cl)c1 | > 100 | > 70 µM | > 87.9 µM | > 83.7 µM | 1.79 | 17.8 µM |  | 64.5 µM | 43.4 | > 77.7 µM |  |  |  |  |  |  |
| Nc1nnc(N)n1N | > 100 |  | > 100 µM | > 100 µM | > 100 | > 100 µM |  | > 100 µM | > 100 | > 100 µM |  |  |  |  |  |  |
| COc1ccc(-c2cc(-c3ccc(C)cc3)n(C3OC(COC(C)=O)C(OC(C)=O)C(OC(C)=O)C3OC(C)=O)c(=S)c2C#N)cc1 (configuration not stated) | > 100 | > 100 µM | > 100 µM | > 100 µM | > 100 |  | > 100 | > 100 µM | > 100 | > 100 µM |  |  |  |  |  |  |
| Cc1[nH]c(=O)nc(N/N=C/c2c3ccccc3c(Cl)c3ccccc23)c1C(=O)Nc1ccc(Cl)cc1 | > 100 |  | > 100 µM | > 100 µM | > 100 | > 100 µM | > 100 | > 100 µM | > 100 |  |  |  |  |  |  |  |
| COc1ccc(C2=C(OC(C)=O)c3cccn3-c3ccc(Cl)cc3S2)cc1 | > 10 |  | 7.47 µM | > 10 µM |  | > 10 µM |  | > 10 µM |  | > 10 µM |  |  |  |  |  |  |
| Cc1[nH]n(-c2nc(-c3ccccc3)cc(=O)[nH]2)c(=O)c1CCO | > 100 | > 100 µM | > 100 µM | > 100 µM | > 100 | > 100 µM |  | > 100 µM | > 100 | > 100 µM |  |  |  |  |  |  |
| COC(=O)c1ccc(OCCn2nnc(C(=O)NN)c2C(=O)NN)cc1 |  | > 100 µM | > 100 µM | > 100 µM |  | > 100 µM | > 100 | > 100 µM | > 100 |  |  |  |  |  |  |  |
| O=C(O)c1ccc2c(O)c(O)ccc2c1 | > 100 | 55.3 µM | 18 µM | > 93.8 µM | 44.3 | 50.5 µM | 40.8 | 21.2 µM |  | > 72.5 µM |  |  |  |  |  |  |
| C/C(Cc1ccc2c(c1)OCO2)=N\N=c1\sc2ccccc2n1C | > 100 | > 100 µM | > 100 µM | > 100 µM | > 100 | > 100 µM | > 100 | > 100 µM |  |  |  |  |  |  |  |  |
| COc1ccc(N2C(=O)C3ON(Cc4ccc(CC(N)=O)cc4)C(c4c5ccccc5c(C)c5ccccc45)C3C2=O)cc1 (configuration not stated) | > 100 | > 100 µM | 6.41 µM | > 100 µM |  | 46.5 µM | > 100 | 35 µM | 30.8 | > 100 µM |  |  |  |  |  |  |
| O=c1cc(NNc2ccccc2)[nH]c(=O)[nH]1 |  | 67.9 µM | 66.1 µM | > 100 µM | 36 | 31.7 µM |  | 39 µM | 98.9 | > 100 µM |  |  |  |  |  |  |
| CCOP(=O)(OCC)C(c1ccc(F)cc1)N(C(=O)NC(F)(F)F)c1ccc(F)cc1 (configuration not stated) | > 100 | > 100 µM | > 100 µM | > 100 µM | > 100 | > 100 µM |  | > 100 µM | > 100 |  |  |  |  |  |  |  |
| CCCCn1c(=O)[nH]c2c(N)ncnc21 | > 100 | > 100 µM |  | > 100 µM | > 100 | > 100 µM | > 100 | > 100 µM | > 100 | > 100 µM |  |  |  |  |  |  |
| COP(=O)(OC)C(N)Cc1c[nH]c2ccccc12 (configuration not stated) | > 100 | > 100 µM | > 100 µM | > 100 µM | > 100 | > 100 µM |  | > 100 µM | > 100 | > 100 µM |  |  |  |  |  |  |
| Cc1cc(=O)[nH]c2cc(NC(=O)C(C)NC(=O)C(C)NC(=O)C(C)NC(=O)OC(C)(C)C)ccc12 (configuration not stated) | > 15 | > 15 µM | > 15 µM | > 15 µM | > 15 | > 15 µM | > 15 | > 15 µM | > 15 |  |  |  |  |  |  |  |
| COc1c(C(=O)/C(=N/Nc2ccc(C(=O)O)cc2)C(C)=O)c(O)cc2occc12 | > 100 | > 100 µM | > 100 µM | > 100 µM | > 100 | > 100 µM |  | > 100 µM | > 100 | > 100 µM |  |  |  |  |  |  |
| CN(C)N1C(=O)C(=O)N(c2cccc3ccccc23)C1=O | > 10 | > 10 µM | > 10 µM | > 10 µM | > 10 |  |  | > 10 µM | > 10 | > 10 µM |  |  |  |  |  |  |
| COc1ccc2[nH]c3ccc4cc[n+](CCN5CCC(C6CCN(CC[n+]7ccc8ccc9[nH]c%10ccc(OC)cc%10c9c8c7)CC6)CC5)cc4c3c2c1 | > 36.9 | 50 µM and > 46.4 µM | 50 µM and > 100 µM | 50 µM and > 62.2 µM | 50 | 50 µM and > 100 µM | 50 | 31.4 µM and > 100 µM |  | 45.8 µM and 20.6 µM | 35.2 | 0.209 | 0.747 | 33.2 | 12.1 | 0.938 |
